# Measurements reported in patent US20190055212A1, “HISTONE DEMETHYLASE INHIBITORS” (priority 2016, published 2019).
# Biological target: KDM5B enzyme (Homo sapiens, UniProt Q9UGL1)
# Assay: KDM5B HTRF (TR-FRET) demethylase inhibition assay
# Type: biochemical
# Conditions: 1.2 nM KDM5B, 30 nM Biotin-H3K4Me3 1-21 substrate, 10 point dose-response
# Method: Ten point dose-response curves for compounds shown in Table 1 were determined using a homogeneous time resolved fluorescence (HTRF) assay (Reaction Biology Corp, Malvern, Pa.). This assay combines fluorescence resonance energy transfer (FRET) with time resolve (TR) measurements (TR-FRET). The KDM5B α-ketoglutarate-dependent demethylase activity is calculated by measuring demethylation of a biotin labeled histone tri-methylated H3K4 substrate using an europium-cryptate (Eu)-labeled antibody donor specific for dimethylated histone H3K4 and a Streptavidin-XL665 acceptor that binds to the biotin group of substrate, and detecting FRET by exciting the reaction mixture at 320 nm and reading dual emissions at 615 nm and 665 nm.
# Briefly, compounds disclosed herein were solubilized in DMSO and a series of 10, three-fold serial dilutions were made for each compound in 100% DMSO. The initial starting concentration for the serial dilutions of each compound was 10 μM or 100 μM. Control samples lacking compound, KDM5B enzyme or various reaction components also were prepared and processed in parallel with compound test samples.
# An aliquot of each serial dilution of test compound was added to a 384 well plate (Corning Cat #3572) containing 1.2 nM KDM5B enzyme suspended in 50 mM Hepes, pH7.5, 50 mM NaCl, 0.01% Tween 20, 0.1% BSA, and 1% DMSO (final concentrations) in a 10 microliter reaction volume using a LABCYTE ECHO liquid handler. The samples were mixed, subjected to centrifugation and the plate was pre-incubated at room temperature for 15 min, to which 30 nM Biotin-H3K4Me3 1-21 substrate (Anaspec Cat #64192), 20 μM […] and 20 μM α-ketoglutarate co-factors, and 100 μM Ascorbate were added to initiate the enzymatic reaction. The reaction mixture was incubated at room temperature for 45 minutes. A 10 μl aliquot of a detection mixture of Eu-labeled anti-histone H3K4Me2 antibody (CisBIO Cat #610AXLB) and Streptavidin-XL665 (CisBIO Cat #610 SAXLB) in 200 mM potassium fluoride and 10 mM EDTA was added and kinetic measurements were read at 5 minute intervals for a period of 30 minutes using an Envision Multiplate Reader (PerkinElmer Model 2102; excitation at 320 nm and emmission reads at 615 nm and 665 nm). The IC50 value for each compound was determined from the 665/615 ratio obtained for each 10 point dose-response curve using GraphPad Prism 4 software with a sigmodial dose response. Key: “A”≤100 nM; “B”>100 nM-≤500 nM; “C”>500 nM and N/D is not determined.
# Sequence of KDM5B enzyme (Q9UGL1 whole entry): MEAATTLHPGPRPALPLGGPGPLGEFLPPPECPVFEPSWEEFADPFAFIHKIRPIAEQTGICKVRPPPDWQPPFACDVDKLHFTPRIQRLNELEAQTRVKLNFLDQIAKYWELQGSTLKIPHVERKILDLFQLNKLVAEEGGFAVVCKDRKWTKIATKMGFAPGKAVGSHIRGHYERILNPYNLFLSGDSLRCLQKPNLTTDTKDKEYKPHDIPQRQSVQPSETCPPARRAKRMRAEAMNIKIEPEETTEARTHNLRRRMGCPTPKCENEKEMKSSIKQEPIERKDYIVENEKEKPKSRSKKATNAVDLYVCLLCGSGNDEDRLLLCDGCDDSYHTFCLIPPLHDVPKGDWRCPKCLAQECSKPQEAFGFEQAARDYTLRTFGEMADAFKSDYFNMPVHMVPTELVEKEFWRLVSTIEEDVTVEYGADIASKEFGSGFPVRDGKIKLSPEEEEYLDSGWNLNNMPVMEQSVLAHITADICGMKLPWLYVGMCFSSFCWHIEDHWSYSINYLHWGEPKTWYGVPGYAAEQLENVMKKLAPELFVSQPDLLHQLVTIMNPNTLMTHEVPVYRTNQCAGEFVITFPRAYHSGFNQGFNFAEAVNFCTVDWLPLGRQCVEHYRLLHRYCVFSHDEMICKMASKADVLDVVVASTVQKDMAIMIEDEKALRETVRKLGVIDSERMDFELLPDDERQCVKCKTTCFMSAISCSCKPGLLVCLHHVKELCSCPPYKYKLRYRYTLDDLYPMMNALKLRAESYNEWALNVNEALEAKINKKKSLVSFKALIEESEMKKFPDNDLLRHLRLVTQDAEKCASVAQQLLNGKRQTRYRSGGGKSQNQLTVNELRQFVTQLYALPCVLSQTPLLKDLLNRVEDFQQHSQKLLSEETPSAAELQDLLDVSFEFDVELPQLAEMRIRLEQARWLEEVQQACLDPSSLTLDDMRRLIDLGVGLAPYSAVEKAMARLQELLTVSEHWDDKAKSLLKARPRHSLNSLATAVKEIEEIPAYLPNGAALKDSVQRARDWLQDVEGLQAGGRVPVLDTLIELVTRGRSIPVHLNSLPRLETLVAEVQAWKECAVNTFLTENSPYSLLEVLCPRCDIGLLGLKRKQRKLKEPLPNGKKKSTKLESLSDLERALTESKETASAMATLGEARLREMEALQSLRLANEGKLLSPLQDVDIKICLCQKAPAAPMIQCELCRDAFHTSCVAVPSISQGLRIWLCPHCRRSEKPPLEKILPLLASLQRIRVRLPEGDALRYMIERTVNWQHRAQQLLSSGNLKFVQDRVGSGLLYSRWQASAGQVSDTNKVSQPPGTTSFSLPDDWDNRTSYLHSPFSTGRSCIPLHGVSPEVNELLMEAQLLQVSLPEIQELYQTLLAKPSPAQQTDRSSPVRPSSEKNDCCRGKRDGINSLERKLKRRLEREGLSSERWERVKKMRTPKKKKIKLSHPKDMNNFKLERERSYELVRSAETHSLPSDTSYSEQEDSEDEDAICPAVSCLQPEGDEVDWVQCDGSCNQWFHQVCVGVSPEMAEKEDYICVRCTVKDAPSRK
row,SMILES,IC50 [nM]
1,O=C(O)c1ccnc(-c2nc3ccccc3n2Cc2ccc(Cl)cc2)c1 [Example 1],100 to 500
2,COc1ccc(Cn2c(-c3cc(C(=O)O)ccn3)nc3ccccc32)cc1 [Example 2],≤ 100
3,COc1ccc(CCn2c(-c3cc(C(=O)O)ccn3)nc3ccccc32)cc1 [Example 3],100 to 500
4,COc1ccc(-n2c(-c3cc(C(=O)O)ccn3)nc3ccccc32)cc1 [Example 4],≤ 100
5,COc1cc(C)ccc1CCn1ccnc1-c1cc(C(=O)O)ccn1 [Example 5],> 500
6,COc1cc(Cl)ccc1CCn1ccnc1-c1cc(C(=O)O)ccn1 [Example 6],100 to 500
7,Cc1cc(Cl)ccc1CCn1ccnc1-c1cc(C(=O)O)ccn1 [Example 7],100 to 500
8,O=C(O)c1ccnc(-c2nccn2CCc2ccc(Cl)cc2)c1 [Example 8],> 500
9,N#Cc1ccccc1Cn1ccnc1-c1cc(C(=O)O)ccn1 [Example 9],100 to 500
10,O=C(O)c1ccnc(-c2nccn2Cc2ccc(Cl)cc2)c1 [Example 10],100 to 500
11,CCN1CCN(c2ccc(Cn3ccnc3-c3cc(C(=O)O)ccn3)c3c2CCCC3)CC1 [Example 11],> 500
12,Cn1c(-c2ccccn2)cnc1-c1cc(C(=O)O)ccn1 [Example 12],≤ 100
13,Cn1cc(-c2ccccn2)nc1-c1cc(C(=O)O)ccn1 [Example 13],> 500
14,O=C(O)c1ccnc(-c2ncc(CO)n2CCc2ccc(Cl)cc2)c1 [Example 14],100 to 500
15,CNC(=O)c1cnc(-c2cc(C(=O)O)ccn2)n1CCc1ccc(Cl)cc1 [Example 15],≤ 100
16,Cc1ccc(-n2ccnc2-c2cc(C(=O)O)ccn2)cc1 [Example 16],100 to 500
17,CN(Cc1ccc(F)cc1)Cc1ccc2nc(-c3cc(C(=O)O)ccn3)n(CCc3ccc(F)cc3)c2c1 [Example 28],100 to 500
18,O=C(O)c1ccnc(-c2nc3ccccc3n2CC2CCOc3ccccc32)c1 (stereo not drawn) [Example 29],≤ 100
19,O=C(O)c1ccnc(-c2ncc(-c3ccccn3)n2CCc2ccc(Cl)cc2)c1 [Example 31],100 to 500
20,O=C(O)c1ccnc(-c2ncc(-c3ccccn3)n2Cc2ccc(Oc3ccccc3)cc2)c1 [Example 34],100 to 500

row,SMILES,IC50 [nM]
1,COc1ccc(N(C)c2ccc(Cn3ccnc3-c3cc(C(=O)O)ccn3)cc2)cc1 [Example 36],> 500
2,CCc1ccc(N(C)c2ccc3c(c2)OCCC3Cn2ccnc2-c2cc(C(=O)O)ccn2)cc1 (stereo not drawn) [Example 42],100 to 500
3,CN(CCc1cnc(-c2cc(C(=O)O)ccn2)n1CCc1ccc(F)cc1)Cc1ccc(Cl)cc1 [Example 47],≤ 100
4,O=C(O)c1ccnc(-c2ncc(CCN3CCC(c4cc(Cl)cc(Cl)c4)CC3)n2CCc2ccc(F)cc2)c1 [Example 51],≤ 100
5,COc1cc(CN2CCC(NCCc3ccccc3)CC2)ccc1Cn1ccnc1-c1cc(C(=O)O)ccn1 [Example 54],100 to 500
6,CN(Cc1ccccn1)Cc1cnc(-c2cc(C(=O)O)ccn2)n1CCc1ccc(F)cc1 [Example 62],100 to 500
7,CN(Cc1ccc(N2CCOCC2)cc1)Cc1cnc(-c2cc(C(=O)O)ccn2)n1CCc1ccc(F)cc1 [Example 66],100 to 500
8,CN(Cc1cnc(-c2cc(C(=O)O)ccn2)n1CCc1ccc(F)cc1)C1CCN(Cc2ccccc2)CC1 [Example 68],≤ 100
9,O=C(O)c1ccnc(-c2ncc(CN(CCO)Cc3ccccc3)n2CCc2ccc(F)cc2)c1 [Example 70],100 to 500
10,CN1CCN(Cc2cnc(-c3cc(C(=O)O)ccn3)n2CCc2ccc(F)cc2)C(c2ccccc2)C1 (stereo not drawn) [Example 72],≤ 100
11,O=C(O)c1ccnc(-c2ncc(CN3CCC(OC4CCCCC4)CC3)n2CCc2ccc(F)cc2)c1 [Example 74],≤ 100
12,O=C(O)c1ccnc(-c2ncc(CN3CCN(CCCOc4ccccc4)CC3)n2CCc2ccc(F)cc2)c1 [Example 76],≤ 100
13,O=C(O)c1ccnc(-c2ncc(CN3CCN(Cc4ccc(C(F)(F)F)cc4)CC3)n2CCc2ccc(F)cc2)c1 [Example 78],≤ 100
14,O=C(O)c1ccnc(-c2ncc(CN3CCCN(c4ccccc4)CC3)n2CCc2ccc(F)cc2)c1 [Example 82],≤ 100
15,O=C(O)c1ccnc(-c2ncc(CN3CCc4c([nH]c5ccccc45)C3)n2CCc2ccc(F)cc2)c1 [Example 86],≤ 100
16,CCc1ccc(N(C)c2ccc3c(c2)OCCC3Cn2c(-c3cc(C(=O)O)ccn3)nc3ccccc32)cc1 (stereo not drawn) [Example 88],> 500
17,COc1ccc(N(C)c2ccc3c(c2)OCCC3Cn2c(-c3cc(C(=O)O)ccn3)nc3ccccc32)cc1 (stereo not drawn) [Example 90],> 500
18,CN1CCN(Cc2cnc(-c3cc(C(=O)O)ccn3)n2C)C(c2ccccc2)C1 (stereo not drawn) [Example 101],≤ 100
19,Cn1c(CN2CCN(Cc3ccc(C(F)(F)F)cc3)CC2)cnc1-c1cc(C(=O)O)ccn1 [Example 107],≤ 100
